Reference: patent publication US7157430B2, “(Substituted)acyl dipeptidyl inhibitors of the ICE/CED-3 family of cysteine proteases” (Idun Pharmaceuticals, Inc., priority 1998, dated 2007)
Where two headings read alike, the source gives them in different places. Where a SMILES comes first, the peptide text is derived from it. The star is where a group is joined. Cbz = O=C(OCc1ccccc1)*

Experiments:
Assay type in all cases: biochemical
mICE = biological target: T1, mICE (Mus musculus, UniProt P29452); experiment: Fluorescence enzyme assay, IC50 determination, ICE
T1 sequence (P29452 123-296 limits assumed): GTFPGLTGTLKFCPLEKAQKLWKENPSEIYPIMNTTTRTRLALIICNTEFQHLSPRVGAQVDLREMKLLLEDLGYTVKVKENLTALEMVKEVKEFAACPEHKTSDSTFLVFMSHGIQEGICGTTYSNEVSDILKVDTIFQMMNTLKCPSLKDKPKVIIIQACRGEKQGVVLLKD
T1 sequence (P29452 315-402 limits assumed): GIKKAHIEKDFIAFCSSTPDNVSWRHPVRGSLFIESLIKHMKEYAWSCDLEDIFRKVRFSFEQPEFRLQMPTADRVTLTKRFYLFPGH
Method: (§1) Fluorescence enzyme assays detecting the activity of the compounds of Formula 1 utilizing the recombinant ICE and CPP32 enzymes are performed essentially according to Thornberry et al. (Nature, 356:768:774 (1992)) and Nicholson et al. (Nature, 376:37–43 (1995)) respectively, (herein incorporated by reference) in 96 well microtiter plates. The substrate is Acetyl-Tyr-Val-Ala-Asp-amino-4-methylcoumarin (AMC) for the ICE assay and Acetyl-Asp-Glu-Val-Asp-amino-4-methylcoumarin for the CPP32, Mch2, Mch3 and Mch5 assays. Enzyme reactions are run in ICE buffer (25 mM HEPES, 1 mM EDTA, 0.1% CHAPS, 10% sucrose, pH 7.5) containing 2 mM DTT at room temperature in duplicate.
(§2) The enzyme and the compound of Formula I to be assayed are allowed to preincubate in the microtitre plate wells for 30 minutes at room temperature prior to the addition of substrate to initiate the reaction. Fluorescent AMC product formation is monitored for one hour at room temperature by measuring the fluorescence emission at 460 nm using an excitation wavelength of 360 nm. The fluorescence change in duplicate (control) wells are averaged and the mean values are plotted as a function of inhibitor concentration to determine the inhibitor concentration producing 50% inhibition (IC50). The results of this assay are set forth below in Table 1 and in Table 3 (for Table 3, see Examples 11 through 52).
(§3) The reference compound for this assay was Cbz-ValAlaAsp-H and the values are denoted in Table 1 as “Reference”.

CPP32 = biological target: T2, CPP32 (Homo sapiens, UniProt P42574); experiment: Fluorescence enzyme assay, IC50 determination, CPP32
T2 sequence (P42574 29-175 limits assumed): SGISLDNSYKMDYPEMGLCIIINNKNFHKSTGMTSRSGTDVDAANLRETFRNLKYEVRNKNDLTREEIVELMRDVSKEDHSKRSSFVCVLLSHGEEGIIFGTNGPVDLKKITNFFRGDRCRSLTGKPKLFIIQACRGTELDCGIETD
T2 sequence (P42574 176-277 limits assumed): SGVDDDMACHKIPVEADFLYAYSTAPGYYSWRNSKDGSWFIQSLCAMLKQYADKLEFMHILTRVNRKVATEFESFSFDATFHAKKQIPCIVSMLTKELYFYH
Method: as §1, §2, §3

MCH-2 = biological target: T3, MCH-2 (Homo sapiens, UniProt P55212); experiment: Fluorescence enzyme assay, IC50 determination, Mch2
T3 sequence (P55212 24-179 limits assumed): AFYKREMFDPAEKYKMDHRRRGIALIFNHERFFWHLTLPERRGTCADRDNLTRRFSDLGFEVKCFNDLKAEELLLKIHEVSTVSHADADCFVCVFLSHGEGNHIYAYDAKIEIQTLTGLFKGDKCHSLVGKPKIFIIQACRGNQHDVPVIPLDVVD
T3 sequence (P55212 194-293 limits assumed): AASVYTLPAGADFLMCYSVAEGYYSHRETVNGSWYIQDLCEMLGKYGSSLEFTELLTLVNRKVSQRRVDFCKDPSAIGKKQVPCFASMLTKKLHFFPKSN
Method: as §1, §2, §3

MCH-3 = biological target: T4, MCH-3 (Homo sapiens, UniProt P55210); experiment: Fluorescence enzyme assay, IC50 determination, Mch3
T4 sequence (P55210 24-198 limits assumed): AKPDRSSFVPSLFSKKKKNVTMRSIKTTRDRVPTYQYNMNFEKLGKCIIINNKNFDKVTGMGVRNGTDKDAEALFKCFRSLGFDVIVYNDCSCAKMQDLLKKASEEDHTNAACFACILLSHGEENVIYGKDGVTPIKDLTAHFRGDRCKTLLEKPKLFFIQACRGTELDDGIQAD
T4 sequence (P55210 207-303 limits assumed): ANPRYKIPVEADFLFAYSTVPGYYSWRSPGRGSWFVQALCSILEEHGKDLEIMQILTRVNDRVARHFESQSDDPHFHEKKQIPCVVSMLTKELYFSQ
Method: as §1, §2, §3

MCH-5 = MCH-5 (Homo sapiens, UniProt Q14790); experiment: Fluorescence enzyme assay, IC50 determination, Mch5
Chain of MCH-5 (Q14790 217-374 limits assumed, species assumed): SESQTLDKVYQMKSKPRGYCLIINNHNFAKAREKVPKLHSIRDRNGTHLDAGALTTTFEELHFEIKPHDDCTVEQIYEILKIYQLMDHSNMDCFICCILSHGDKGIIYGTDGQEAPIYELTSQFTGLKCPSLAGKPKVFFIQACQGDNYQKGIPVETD
Chain of MCH-5 (Q14790 385-479 limits assumed, species assumed): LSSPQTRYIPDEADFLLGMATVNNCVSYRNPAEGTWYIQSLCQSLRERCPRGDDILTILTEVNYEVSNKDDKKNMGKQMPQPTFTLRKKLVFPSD
Method: as §1, §2, §3

[1] = Table 3, method of Preparation 3A, read-out: mICE I50
[2] = Table 3, method of Preparation 3A, read-out: CPP32 I50
[3] = Table 3, method of Preparation 3A, read-out: MCH2 I50
[4] = Table 3, method of Preparation 3A, read-out: MCH3 I50
[5] = Table 3, method of Preparation 3A, read-out: MCH5 I50
[6] = recombinant enzyme, Ac-YVAD-AMC substrate, 30 min preincubation, room temperature, read-out: mICE IC50
[7] = recombinant enzyme, Ac-DEVD-AMC substrate, 30 min preincubation, room temperature, read-out: CPP32 IC50
[8] = Ac-DEVD-AMC substrate, 30 min preincubation, room temperature, read-out: MCH-2 IC50
[9] = Ac-DEVD-AMC substrate, 30 min preincubation, room temperature, read-out: MCH-3 IC50
[10] = Ac-DEVD-AMC substrate, 30 min preincubation, room temperature, read-out: MCH-5 IC50

IC50 (mICE; [1]) [µM]	IC50 (CPP32; [2]) [µM]	IC50 (MCH-2; [3]) [µM]	IC50 (MCH-3; [4]) [µM]	IC50 (MCH-5; [5]) [µM]	IC50 (mICE; [6]) [µM]	IC50 (CPP32; [7]) [µM]	IC50 (MCH-2; [8]) [µM]	IC50 (MCH-3; [9]) [µM]	IC50 (MCH-5; [10]) [µM]	SMILES
0.141	0.357	21.4	3.61	3.04	–	–	–	–	–	CC(C)C[C@H](NC(=O)COc1c(Cl)cc(Cl)c2ccccc12)C(=O)N[C@H](C=O)CC(=O)O [Example 29]
44.2	1.57	> 50	34.7	> 50	–	–	–	–	–	CC(C)C[C@H](NC(=O)COc1nccc2ccccc12)C(=O)N[C@H](C=O)CC(=O)O [Example 30]
35.3	0.232	> 50	4.57	> 50	–	–	–	–	–	CC(C)C[C@H](NC(=O)COc1ccnc2ccccc12)C(=O)N[C@H](C=O)CC(=O)O [Example 31]
5.25	0.412	> 50	3.85	4.02	–	–	–	–	–	CC(C)C[C@H](NC(=O)COc1cccc2ncccc12)C(=O)N[C@H](C=O)CC(=O)O [Example 32]
5.14	0.407	42.7	3.48	3.64	–	–	–	–	–	CC(C)C[C@H](NC(=O)COc1cccc2cnccc12)C(=O)N[C@H](C=O)CC(=O)O [Example 33]
13.7	0.147	12.5	1.51	2.24	–	–	–	–	–	CC(C)C[C@H](NC(=O)COc1cccc2cccnc12)C(=O)N[C@H](C=O)CC(=O)O [Example 34]
20.4	1.77	> 10	8.27	> 10	–	–	–	–	–	CC(C)C[C@H](NC(=O)C(C)Oc1ccccc1)C(=O)N[C@H](C=O)CC(=O)O (stereo partly shown) [Example 36]
9.42	0.419	> 50	6.04	> 10	–	–	–	–	–	CC(C)C[C@H](NC(=O)CCOc1ccccc1)C(=O)N[C@H](C=O)CC(=O)O [Example 37]
> 10	3.4	> 50	> 10	> 10	–	–	–	–	–	CC(C)C[C@H](NC(=O)COc1ccccc1)C(=O)N[C@H](C=O)CC(=O)O [Example 38]
0.636	0.095	0.717	2.02	1.71	–	–	–	–	–	CC(C)C[C@H](NC(=O)COc1ccccc1-c1ccccc1)C(=O)N[C@H](C=O)CC(=O)O [Example 39]
1.1	0.311	14.5	3.75	3.86	–	–	–	–	–	CC(C)C[C@H](NC(=O)COc1cccc(-c2ccccc2)c1)C(=O)N[C@H](C=O)CC(=O)O [Example 40]
1.9	0.763	20.5	12	7.53	–	–	–	–	–	CC(C)C[C@H](NC(=O)COc1ccc(-c2ccccc2)cc1)C(=O)N[C@H](C=O)CC(=O)O [Example 41]
0.521	0.49	10.1	3.36	6.05	–	–	–	–	–	CC(C)C[C@H](NC(=O)COc1ccccc1Cc1ccccc1)C(=O)N[C@H](C=O)CC(=O)O [Example 42]
1.8	0.346	18.9	4.41	4.72	–	–	–	–	–	CC(C)C[C@H](NC(=O)COc1ccc(Cc2ccccc2)cc1)C(=O)N[C@H](C=O)CC(=O)O [Example 43]
2.21	0.545	21.2	6.82	9.28	–	–	–	–	–	CC(C)C[C@H](NC(=O)COc1ccc(Oc2ccccc2)cc1)C(=O)N[C@H](C=O)CC(=O)O [Example 44]
2.4	0.222	9.75	2.2	4.34	–	–	–	–	–	CC(C)C[C@H](NC(=O)COc1ccccc1OCc1ccccc1)C(=O)N[C@H](C=O)CC(=O)O [Example 45]
2.51	0.57	33.4	7.25	8.6	–	–	–	–	–	CC(C)C[C@H](NC(=O)COc1ccc(OCc2ccccc2)cc1)C(=O)N[C@H](C=O)CC(=O)O [Example 46]
1.81	0.324	11.8	2.74	1.75	–	–	–	–	–	CC(C)C[C@H](NC(=O)COc1cccc2c1CCCC2)C(=O)N[C@H](C=O)CC(=O)O [Example 51]
2.57	0.162	28.6	2.31	4.95	–	–	–	–	–	CC(C)C[C@H](NC(=O)COc1ccc2c(c1)CCCC2)C(=O)N[C@H](C=O)CC(=O)O [Example 52]
–	–	–	–	–	0.204	14	3.53	> 50	1.55	O=C[C@H](CC(=O)O)NC(=O)[C@@H]1CSC(c2ccccc2)N1C(=O)COc1cccc2ccccc12 (stereo partly drawn) [Example 179, (3S,2′RS,4′R)-3-[3′-((1-Naphthyloxy)Acetyl)-2′-Phenylthiazolidine-4′-Carbonyl]Amino-4-Oxobutanoic Acid]
–	–	–	–	–	0.298	25.3	> 50	> 50	39.8	O=C[C@H](CC(=O)O)NC(=O)[C@@H]1Cc2ccccc2N1C(=O)COc1cccc2ccccc12 [Example 186, (2′S,3S)-3-[N-((1-Naphthyloxy)Acetyl)Indoline-2′-Carbonyl]Amino-4-Oxobutanoic Acid]
–	–	–	–	–	0.127	0.207	1.01	11	0.615	CC(C)[C@H](NC(=O)COc1cccc2c(NS(=O)(=O)C(F)(F)F)cccc12)C(=O)N[C@H](C=O)CC(=O)O [Example 188, (3S)-3-[N-((5′-Trifluoromethylsulfonylamino-1′-Naphthyloxy)Acetyl)Valinyl]Amino-4-Oxobutanoic Acid]
–	–	–	–	–	0.064	47	> 10	> 10	2.96	CC(C)[C@H](NC(=O)OCc1ccccc1)C(=O)N[C@@H](C)C(=O)N[C@H](C=O)CC(=O)O [reference, Cbz-ValAlaAsp-H, reference compound] (Cbz-Val-Ala-Asp-aldehyde)
